Patent US8258099B2, “Pin1-modulating compounds and methods of use thereof” (Max-Planck-Gesellschaft zur Foerderung der Wissenschaften …, priority 2004, dated 2012)
Square brackets hold non-standard residues; d marks the D form. Peptide text beside a SMILES is read from it. d(pT) = C[C@H](OP(=O)(O)O)[C@@H](N)C(=O)O; 2Nal = N[C@@H](Cc1ccc2ccccc2c1)C(=O)O; Pip = O=C(O)[C@@H]1CCCCN1

Biological target: hPar14 (Homo sapiens, UniProt Q9Y237)
Test: Protease coupled PPIase assay, hPar14
Assay type: biochemical
Settings: up to 50 μM
Experimental: FIG. 6 depicts the influence of peptide 17 on the hPar14 PPIase activity. The apparent first order rate constant kobs determined for the cis to trans isomerization of the arginyl-prolyl peptide bond of the substrate Suc-Ala-Arg-Pro-Phe-NH-Np (SEQ ID NO: 3) was measured using the protease coupled PPIase assay. α-Chymotrypsin was used as isomer specific protease. As control, the nonphosphorylated derivative of peptide 17 was used.
PPIase activities were monitored on a Hewlett-Packard 8452A diode array spectrophotometer according to Fischer et al., 1984 and Zhang et al., 2002. The hPar14 PPIase activity was measured with Suc-Ala-Arg-Pro-Phe-NH-Np (SEQ ID NO: 3) (final concentration 75 μM) as substrate and α-chymotrypsin (final concentration 60 μM) as isomer specific protease. PPIase activity of hCyp 18 and FKBP12 were measured using Suc-Ala-Ala-Pro-Phe-NH-Np (SEQ ID NO: 7) as substrate (final concentration 16 μM) and α-chymotrypsin (final concentration 60 μM) as isomer specific protease. PPIase activity of hPin1 was measured with Ac-Ala-Ala-Ser(PO3H2)-Pro-Arg-NH-Np (SEQ ID NO: 4) (final concentration 10 μM) as substrate and trypsin (final concentration 60 μM) as isomer specific protease. Final concentrations of the PPIases were 1.7 μM for hPar14, 4 nM for hPin1, 7 nM for FKBP12 and 9.7 nM for hCyp18. […] Measurements were monitored at 390 nm. […]

hPar14, sequence (Q9Y237 whole entry): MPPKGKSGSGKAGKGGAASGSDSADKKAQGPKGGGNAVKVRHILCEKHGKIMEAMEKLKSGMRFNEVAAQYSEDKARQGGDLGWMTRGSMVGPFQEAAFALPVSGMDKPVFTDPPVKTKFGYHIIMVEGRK

CC(=O)N[C@@H](Cc1ccccc1)C(=O)N[C@@H](C(=O)N1CCCC[C@H]1C(=O)N[C@@H](Cc1ccc2ccccc2c1)C(=O)N[C@@H](CCC(N)=O)C(N)=O)[C@H](C)OP(=O)(O)O [Peptide 17, Ac-Phe-D-Thr(PO3H2)-Pip-Nal-Gln-NH2] (Ac-F[d(pT)][Pip][2Nal]Q-NH2)
inhibition of hPar14 PPIase activity: No inhibition
